Test: Amounts of carbon dioxide absorption in test liquid (physical absorption, pressure-drop method)
Format: physicochemical
Details: 30° C.; for Amount of carbon dioxide absorption, not in coexistence of water a: 100% by mass of compound as test liquid; for Amount of carbon dioxide absorption, not in coexistence of water a / Amount of carbon dioxide absorption, in coexistence of water b: calculated via Henry's constant for P 3.0 MPa; for Amount of carbon dioxide absorption, in coexistence of water b: mixture of 90% by mass of compound and 10% by mass of water; for Carbon dioxide absorption ratio b/a: ratio of absorption in coexistence of water to not in coexistence of water, 3 MPa
Experimental: A 300-mL pressure-resistant container (A) connected to a carbon dioxide cylinder by piping, and a 150-mL pressure-resistant container were prepared, and amounts of carbon dioxide absorption were determined through a procedure of (i) to (iv) shown below. A regulator and a pressure gage were connected between the carbon dioxide cylinder and pressure-resistant container (A), and pressure-resistant container (A) and pressure-resistant container (B) were soaked in a water bath.
(i) The temperature of the water bath was set to 30° C., and pressure-resistant container (B) containing 50 mL of a test liquid was degassed under reduced pressure with a vacuum pump.
(ii) Pressure-resistant container (A) was filled with carbon dioxide depressurized to 0.20 MPa through the regulator, and the pressure at that time was measured. Thereafter, pressure-resistant container (A) and pressure-resistant container (B) were connected together, and the pressure after 1 hour was measured. Assuming that carbon dioxide in an amount corresponding to the reduction of pressure was absorbed in the test liquid, the amount in moles of adsorbed carbon dioxide per unit mass (mol/kg) was calculated.
(iii) The same operation as (ii) was performed at 0.35 MPa, 0.50 MPa, 0.60 MPa, and 0.80 MPa, and the Henry's constant, Hb (MPa·kg/mol), which indicates the pressure dependence of the amount in moles of adsorbed carbon dioxide (mol/kg), was calculated.
(iv) The amount of carbon dioxide absorption per unit mass of the test liquid (g/kg) was calculated from the following expression:
n: molar mass of carbon dioxide=44 (g/mol).
In the calculation, P (MPa) was 3.0 MPa, which is a representative condition for using physical absorption liquid.
For the case that an acidic gas removing agent (100% by mass of compound) was used as a test liquid (not in coexistence of water) and the case that a mixture of 90% by mass of the acidic gas removing agent (compound) and 10% by mass of water was used as a test liquid (in the coexistence of water), the amounts of carbon dioxide absorption in the test liquids were determined.
The carbon dioxide absorption ratio is the ratio (b/a) of the amount of carbon dioxide absorption per unit mass of a mixture of 90% by mass of an acidic gas removing agent and 10% by mass of water, b (g/kg), to the amount of carbon dioxide absorption per unit mass of the acidic gas removing agent, a (g/kg).

SMILES | Amount of carbon dioxide absorption, not in coexistence of water a | Amount of carbon dioxide absorption, in coexistence of water b | Carbon dioxide absorption ratio b/a
CC(O)COC(C)COC(C)CO (stereo not drawn) [C-2, tripropylene glycol, reference compound] | 92 g/kg | 65 g/kg | 0.71
OCCCCOCCCCOCCCCO [C-3, PTMG250, reference compound] | 72 g/kg | 56 g/kg | 0.78
CCCCOCCOCC(C)OCC(C)OCC(C)O (stereo not drawn) [A-2] | 128 g/kg | 98 g/kg | 0.77
C=CCOCC(C)OCC(C)OCC(C)OCC(C)OCC(C)OCC(C)OCC(C)OC (stereo not drawn) [B-5] | 129 g/kg | 120 g/kg | 0.93
CCCCOCC(C)OCC(C)OCC(C)OCC(C)OCC(C)OCC(C)OCC(C)OC (stereo not drawn) [B-1] | 134 g/kg | 120 g/kg | 0.89
CCCCOCC(C)OCC(C)OCC(C)OCC(C)O (stereo not drawn) [A-1] | 132 g/kg | 112 g/kg | 0.85
COC(C)COC(C)COC(C)COCC(C)OCC(C)OCC(C)OCC(C)OC (stereo not drawn) [B-6] | 144 g/kg | 122 g/kg | 0.85
COC(C)COC(C)COC(C)COC(C)COC(C)COC(C)COCCOC(C)(C)C (stereo not drawn) [B-4] | 142 g/kg | 128 g/kg | 0.90
CCCCOCCOCC(C)OCC(C)OCC(C)OCC(C)OCC(C)OC (stereo not drawn) [B-2] | 157 g/kg | 140 g/kg | 0.89
CC(O)COC(C)COC(C)COCC(C)OCC(C)OCC(C)OCC(C)O (stereo not drawn) [A-8] | 104 g/kg | 79 g/kg | 0.76
COC(C)COC(C)COC(C)COC(C)COC(C)COC(C)COCCOCC(C)C (stereo not drawn) [B-7] | 140 g/kg | 139 g/kg | 0.99
CCCCOCCOCCOCC(C)OCC(C)OCC(C)OCC(C)OCC(C)OC (stereo not drawn) [B-3] | 149 g/kg | 134 g/kg | 0.90
